In US12545673B2, “Imidazopyridine derivative and pharmaceutical composition comprising same as active ingredient” (TSD LIFE SCIENCES CO., LTD., priority 2019, dated 2026) one finds inhibition and IC50 data, which are given here for twelve molecules.

Experiment [1] concerns gastric cancer cell line AGS. Put plainly: Cancer cell proliferation inhibitory activity evaluation 2 (CCK-8), AGS. The format is cell-based. Particulars: Homo sapiens, read-out: Cancer cell proliferation inhibitory activity AGS. As to the method:
(§1) In order to identify whether the compounds have anticancer activity, the acute myeloid leukemia cell line U937, the acute lymphoblastic leukemia cell line Jurkat, the gastric cancer cell lines AGS, […], and the human lung cancer cell line A549 were used. The cell line was cultured using RPMI-1640 medium (U937, Jurkat, AGS, A549) or DMEM (Hs746T) medium containing 10% fetal bovine serum. Welgene products were used as the medium, and hyclone products were used for fetal bovine serum, and 1% of antibiotics for cell culture from Gibco were used as the culture medium.

For experiment [2], the system named is human lung cancer cell line A549. In words: Cancer cell proliferation inhibitory activity evaluation 2 (CCK-8), A549. The format is cell-based. As to the method: as §1
Experiment [3] has as its system gastric cancer cell line Hs746T. In words: Cancer cell proliferation inhibitory activity evaluation 2 (CCK-8), Hs746T. Format: cell-based. To be noted: Homo sapiens. As to the method: as §1
For experiment [4], the system named is acute lymphoblastic leukemia cell line Jurkat. In words: Cancer cell proliferation inhibitory activity evaluation 2 (CCK-8), Jurkat. Particulars: Homo sapiens. Format: cell-based. The method, then: as §1
For the next experiment, the target named is MLK3 (Homo sapiens (Human), UniProt Q16584). In words: Evaluation of inhibitory activity of enzyme units, MLK3 ([γ-33P]-ATP filter assay). Particulars: read-out: IC50(nM) MLK3.
A further experiment has as its target MLK1 (Homo sapiens (Human), UniProt P80192). In words: Evaluation of inhibitory activity of enzyme units, MLK1 ([γ-33P]-ATP filter assay). The format is biochemical.
The test system of experiment [5] is acute myeloid leukemia cell line U937. In words: Cancer cell proliferation inhibitory activity evaluation 2 (CCK-8), U937. To be noted: Homo sapiens, read-out: Cancer cell proliferation inhibitory activity U937. Format: cell-based. The method, then:
as §1

[6] abbreviates: A549, 72 h, read-out: Cancer cell proliferation inhibitory activity A549.
[7] abbreviates: 72 h, read-out: Cancer cell proliferation inhibitory activity Hs746T.
Setting [8] is: 72 h, read-out: Cancer cell proliferation inhibitory activity Jurkat.
[9] abbreviates: A549, 10 μM, 72 hours, CCK-8, read-out: Cancer cell proliferation inhibitory activity A549.
Setting [10] is: 10 μM, 72 hours, CCK-8, read-out: Cancer cell proliferation inhibitory activity Hs746T.
Where [11] appears, read: 10 μM, 72 hours, CCK-8, read-out: Cancer cell proliferation inhibitory activity Jurkat.
Setting [12] is: U-937, 10 μM, 72 hours, CCK-8 (Table 3).

Where two headings read alike, the source gives them in different places.

Sequence of MLK1 (P80192 whole entry, looked up): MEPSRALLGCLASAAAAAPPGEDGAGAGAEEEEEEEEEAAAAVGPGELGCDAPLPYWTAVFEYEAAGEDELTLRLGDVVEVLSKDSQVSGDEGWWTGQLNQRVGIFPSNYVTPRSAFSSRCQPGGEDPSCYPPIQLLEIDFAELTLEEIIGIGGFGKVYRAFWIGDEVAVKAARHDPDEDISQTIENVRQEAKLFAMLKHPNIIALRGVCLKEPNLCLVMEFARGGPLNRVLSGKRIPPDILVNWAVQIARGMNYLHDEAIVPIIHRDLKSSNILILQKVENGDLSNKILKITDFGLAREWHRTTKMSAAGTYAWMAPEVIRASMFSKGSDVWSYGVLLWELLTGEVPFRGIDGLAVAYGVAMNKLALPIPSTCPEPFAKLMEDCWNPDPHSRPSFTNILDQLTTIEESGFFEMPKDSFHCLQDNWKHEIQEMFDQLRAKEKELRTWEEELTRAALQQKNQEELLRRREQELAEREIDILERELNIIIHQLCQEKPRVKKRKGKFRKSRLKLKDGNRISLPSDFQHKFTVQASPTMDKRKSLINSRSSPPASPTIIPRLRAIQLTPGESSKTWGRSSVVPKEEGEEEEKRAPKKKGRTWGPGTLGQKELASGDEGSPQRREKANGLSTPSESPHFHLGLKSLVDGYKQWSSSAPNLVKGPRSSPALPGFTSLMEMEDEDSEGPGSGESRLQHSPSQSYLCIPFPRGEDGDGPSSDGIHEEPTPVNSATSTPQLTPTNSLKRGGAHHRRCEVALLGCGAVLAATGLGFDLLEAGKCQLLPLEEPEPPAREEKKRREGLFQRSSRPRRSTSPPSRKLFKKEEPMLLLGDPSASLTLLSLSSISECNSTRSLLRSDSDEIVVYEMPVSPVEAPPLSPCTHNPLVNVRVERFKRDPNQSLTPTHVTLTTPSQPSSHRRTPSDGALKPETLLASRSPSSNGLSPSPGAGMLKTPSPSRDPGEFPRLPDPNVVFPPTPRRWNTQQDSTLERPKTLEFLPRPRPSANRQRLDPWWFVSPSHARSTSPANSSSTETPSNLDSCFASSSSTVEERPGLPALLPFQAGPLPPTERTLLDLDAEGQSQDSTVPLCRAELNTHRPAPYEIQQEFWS
Sequence of MLK3 (Q16584 whole entry, looked up): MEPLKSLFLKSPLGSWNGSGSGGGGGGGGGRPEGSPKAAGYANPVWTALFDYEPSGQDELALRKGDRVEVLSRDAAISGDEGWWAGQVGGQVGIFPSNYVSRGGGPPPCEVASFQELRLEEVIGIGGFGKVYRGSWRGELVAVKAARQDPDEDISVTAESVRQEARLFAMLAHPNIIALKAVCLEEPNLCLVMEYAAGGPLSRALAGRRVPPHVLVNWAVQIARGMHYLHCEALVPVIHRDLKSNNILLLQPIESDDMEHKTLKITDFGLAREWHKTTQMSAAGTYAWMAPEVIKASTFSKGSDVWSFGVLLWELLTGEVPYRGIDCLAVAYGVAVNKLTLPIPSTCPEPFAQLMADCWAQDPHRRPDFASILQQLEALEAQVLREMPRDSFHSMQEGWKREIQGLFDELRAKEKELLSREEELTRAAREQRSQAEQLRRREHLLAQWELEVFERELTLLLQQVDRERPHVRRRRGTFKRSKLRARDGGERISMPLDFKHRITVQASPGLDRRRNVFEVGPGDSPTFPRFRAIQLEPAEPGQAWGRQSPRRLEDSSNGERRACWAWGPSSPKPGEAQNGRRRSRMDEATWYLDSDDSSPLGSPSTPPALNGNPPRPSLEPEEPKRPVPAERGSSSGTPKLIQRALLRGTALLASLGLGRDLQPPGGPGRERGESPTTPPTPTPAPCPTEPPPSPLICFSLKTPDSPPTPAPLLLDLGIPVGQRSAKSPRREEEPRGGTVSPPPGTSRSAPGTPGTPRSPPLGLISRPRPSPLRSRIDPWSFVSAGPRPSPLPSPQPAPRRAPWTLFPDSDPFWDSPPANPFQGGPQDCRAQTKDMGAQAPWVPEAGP

As usually defined, the IC50 is the concentration at which inhibition is half-maximal. For `CCS(=O)(=O)N1CC[C@H](Nc2c(Br)cnc3[nH]c(-c4cc(C)n(-c5cccc(C(=O)NCCN6CCN(C)CC6)c5)c4C)nc23)C1` [Example 71, (S)-3-(3-(6-bromo-7-((1-(ethylsulfonyl)pyrrolidine-3-yl)amino)-3H-imidazo[4,5-b]pyridine-2-yl)-2,5-dimethyl-1H-pyrrol-1-yl)-N-(2-(4-methylpiperazine-1-yl)ethyl)benzamide], the inhibition at 10 µM in experiment [1] (72 h) was more than 50%; in experiment [2] (setting [6]), less than 10%; in experiment [3] (setting [7]), more than 50%; in experiment [4] (setting [8]) it was more than 50%; in experiment [5] (U-937, 72 h), 10 to 50%. Also, the figures for the 50% inhibitory concentration (IC50) at MLK3 and against MLK1 were 26 nM and 36 nM, respectively.

`CCS(=O)(=O)N1CC[C@H](Nc2c(Br)cnc3[nH]c(-c4cc(C)n(-c5ccc(C(=O)NCCN6CCN(C)CC6)cc5)c4C)nc23)C1` [Example 72, (S)-4-(3-(6-bromo-7-((1-(ethylsulfonyl)pyrrolidine-3-yl)amino)-3H-imidazo[4,5-b]pyridine-2-yl)-2,5-dimethyl-1H-pyrrol-1-yl)-N-(2-(4-methylpiperazine-1-yl)ethyl)benzamide]: the inhibition at 10 µM in experiment [1] (72 h) is more than 50%; in experiment [2] (setting [6]) it was 10 to 50%; in experiment [3] (setting [7]), more than 50%; in experiment [4] (setting [8]), more than 50%; in experiment [5] (U-937, 72 h) it was more than 50%. Besides, the IC50 worked out at 15 nM on MLK3 and 25 nM at MLK1.

For `CCS(=O)(=O)N1CC[C@H](Nc2c(Br)cnc3nc(-c4cc(C)n(-c5cc(NC(=O)CN(C)C)ccc5C)c4C)[nH]c23)C1` [Example 74, N-(3-(3-(6-bromo-7-(((S)-1-(ethylsulfonyl)pyrrolidine-3-yl)amino)-1H-imidazo[4,5-b]pyridine-2-yl)-2,5-dimethyl-1H-pyrrol-1-yl)-4-methylphenyl)-2-(dimethylamino) acetamide], the inhibition at 10 µM is more than 50% in experiment [1] (10 μM, 72 hours, CCK-8); more than 50% in experiment [2] (setting [9]); more than 50% in experiment [3] (setting [10]); more than 50% in experiment [4] (setting [11]); more than 50% in experiment [5] (setting [12]). Moreover, the IC50 at MLK3 was found to be 46 nM; at MLK1, 43 nM.

As to `CCS(=O)(=O)N1CC[C@H](Nc2c(Br)cnc3nc(-c4cc(C)n(-c5ccc(NC(=O)CN6CCN(C)CC6)cc5C)c4C)[nH]c23)C1` [Example 75, N-(4-(3-(6-bromo-7-(((S)-1-(ethylsulfonyl)pyrrolidine-3-yl)amino)-1H-imidazo[4,5-b]pyridine-2-yl)-2,5-dimethyl-1H-pyrrol-1-yl)-3-methylphenyl)-2-(4-methylpiperazine-1-yl) acetamide], the inhibition at 10 µM in experiment [1] (72 h) is more than 50%; in experiment [2] (setting [6]), more than 50%; in experiment [3] (setting [7]) it was more than 50%; in experiment [4] (setting [8]), more than 50%; in experiment [5] (U-937, 72 h) it was more than 50%. In addition, the IC50 on MLK3 worked out at 16 nM; against MLK1, 30 nM.

As to `CCS(=O)(=O)N1CC[C@H](Nc2c(Br)cnc3nc(-c4cc(C)n(-c5ccc(NC(=O)CN6CCOCC6)cc5C)c4C)[nH]c23)C1` [Example 77, N—(4-(3-(6-bromo-7-(((S)-1-(ethylsulfony)pyrolidine-3-yl)amino)-1H-imidazo[4,5-b]pyridine-2-yl)-2,5-dimethyl-1H-pyrrol-1-yl)-3-methylphenyl)-2-morpholinoacetamide], the inhibition at 10 µM in experiment [1] (10 μM, 72 hours, CCK-8) is more than 50%; in experiment [2] (setting [9]), 10 to 50%; in experiment [3] (setting [10]), 10 to 50%; in experiment [4] (setting [11]) it was more than 50%; in experiment [5] (setting [12]), more than 50%. Moreover, the IC50 at MLK3 is 7 nM; against MLK1, 19 nM.

For the molecule `CCS(=O)(=O)N1CC[C@H](Nc2c(Br)cnc3nc(-c4cc(C)n(-c5cc(NC(=O)CN6CCOCC6)ccc5C)c4C)[nH]c23)C1` [Example 78, N-(3-(3-(6-bromo-7-(((S)-1-(ethylsulfonyl)pyrrolidine-3-yl)amino)-1H-imidazo[4,5-b]pyridine-2-yl)-2,5-dimethyl-1H-pyrrol-1-yl)-4-methylphenyl)-2-morpholinoacetamide], the inhibition at 10 µM in experiment [1] (72 h) was more than 50%; in experiment [2] (setting [6]), more than 50%; in experiment [3] (setting [7]) it was more than 50%; in experiment [4] (setting [8]), more than 50%; in experiment [5] (U-937, 72 h), more than 50%. Moreover, the values for the concentration for half-maximal inhibition (IC50) at MLK3 and against MLK1 were 47 nM and 25 nM, respectively.

In the case of `CCS(=O)(=O)N1CC[C@H](Nc2c(Br)cnc3nc(-c4cc(C)n(-c5cccc(NC(=O)CCN(C)C)c5C)c4C)[nH]c23)C1` [Example 79], the inhibition at 10 µM in experiment [1] (72 h) is more than 50%; in experiment [2] (setting [6]), more than 50%; in experiment [3] (setting [7]), more than 50%; in experiment [4] (setting [8]) it was more than 50%; in experiment [5] (U-937, 72 h), more than 50%. Moreover, the half-maximal inhibitory concentration (IC50) on MLK3 stood at 7 nM; against MLK1, 35 nM.

On to `CCS(=O)(=O)N1CC[C@H](Nc2c(Br)cnc3nc(-c4cc(C)n(-c5cccc(C(=O)N6CCOCC6)c5C)c4C)[nH]c23)C1` [Example 83, (3-(3-(6-bromo-7-(((S)-1-(ethylsulfonyl)pyrrolidine-3-yl)amino)-1H-imidazo[4,5-b]pyridine-2-yl)-2,5-dimethyl-1H-pyrrol-1-yl)-2-methylphenyl) (morpholino) methanone], for which the inhibition at 10 µM in experiment [1] (72 h) was more than 50%; in experiment [2] (setting [6]), 10 to 50%; in experiment [3] (setting [7]), more than 50%; in experiment [4] (setting [8]) it was more than 50%; in experiment [5] (U-937, 72 h), more than 50%. Besides, the IC50 was found to be 12 nM on MLK3 and 22 nM against MLK1.

As for `CCS(=O)(=O)N1CC[C@H](Nc2c(Br)cnc3nc(-c4cc(C)n(-c5cccc(NC(=O)CN6CCN(C)CC6)c5C)c4C)[nH]c23)C1` [Example 87, N-(3-(3-(6-bromo-7-(((S)-1-(ethylsulfonyl)pyrrolidine-3-yl)amino)-1H-imidazo[4,5-b]pyridine-2-yl)-2,5-dimethyl-1H-pyrrol-1-yl)-2-methylphenyl)-2-(4-methylpiperazine-1-yl) acetamide], the inhibition at 10 µM in experiment [1] (72 h) was more than 50%; in experiment [2] (setting [6]), more than 50%; in experiment [3] (setting [7]) it was more than 50%; in experiment [4] (setting [8]) it was more than 50%; in experiment [5] (U-937, 72 h) it was more than 50%. The IC50 on MLK3 turned out to be 13 nM; on MLK1, 24 nM.

`Cc1ccc(NC(=O)CN2CCN(C)CC2)cc1-n1c(C)cc(-c2nc3ncc(Br)c(Nc4cccc(S(N)(=O)=O)c4)c3[nH]2)c1C` [Example 89, N-(3-(3-(6-bromo-7-((3-sulfamoylphenyl)amino)-1H-imidazo[4,5-b]pyridine-2-yl)-2,5-dimethyl-1H-pyrrol-1-yl)-4-methylphenyl)-2-(4-methylpiperazine-1-yl) acetamide]: the inhibition at 10 µM in experiment [1] (10 μM, 72 hours, CCK-8) is 10 to 50%; in experiment [2] (setting [9]) it was less than 10%; in experiment [3] (setting [10]), 10 to 50%; in experiment [4] (setting [11]), 10 to 50%; in experiment [5] (setting [12]), less than 10%. The IC50 on MLK3 amounted to 81 nM; against MLK1, 169 nM.

In the case of `Cc1ccc(NC(=O)CN(C)C)cc1-n1c(C)cc(-c2nc3ncc(Br)c(Nc4cccc(S(N)(=O)=O)c4)c3[nH]2)c1C` [Example 90, N-(3-(3-(6-bromo-7-((3-sulfamoylphenyl)amino)-1H-imidazo[4,5-b]pyridine-2-yl)-2,5-dimethyl-1H-pyrrol-1-yl)-4-methylphenyl)-2-(dimethylamino) acetamide], the inhibition at 10 µM in experiment [1] (10 μM, 72 hours, CCK-8) was more than 50%; in experiment [2] (setting [9]), 10 to 50%; in experiment [3] (setting [10]) it was 10 to 50%; in experiment [4] (setting [11]), more than 50%; in experiment [5] (setting [12]), 10 to 50%. In addition, the IC50 was determined as 92 nM at MLK3 and 160 nM on MLK1.

With `CCS(=O)(=O)N1CC[C@H](Nc2c(Br)cnc3nc(-c4cc(C)n(-c5cc(C(=O)N6CCOCC6)ccc5C)c4C)[nH]c23)C1` [Example 91, (3-(3-(6-bromo-7-(((S)-1-(ethylsulfonyl)pyrrolidine-3-yl)amino)-1H-imidazo[4,5-b]pyridine-2-yl)-2,5-dimethyl-1H-pyrrol-1-yl)-4-methylphenyl) (morpholino) methanone], the inhibition at 10 µM in experiment [1] (72 h) was more than 50%; in experiment [2] (setting [6]), more than 50%; in experiment [3] (setting [7]), more than 50%; in experiment [4] (setting [8]) it was more than 50%; in experiment [5] (U-937, 72 h), more than 50%. Further, the figures for the concentration for half-maximal inhibition (IC50) on MLK3 and on MLK1 were 25 nM and 19 nM, respectively.
